5 molecules from ChEMBL document CHEMBL4190251, “Design and synthesis of conformationally constrained salinomycin derivatives” (Eur J Med Chem, 2017) can be followed below.

Test [1] relates to HT-29. In words: Antiproliferative activity against human HT-29 cells at 10 uM after 48 hrs by MTT assay relative to control. The format is functional. (Tetrazolium assays rely on reduction of a dye to a coloured formazan, in cell work by metabolically active cells.)
The test system of test [2] is HT-29. In words: Antiproliferative activity against human HT-29 cells after 48 hrs by MTT assay. The format is functional, cell-based. The note with it: HT-29, 48 h.

Where only a bound is given, the exact number is not on record here.

In the test on HT-29 [1], `CC[C@@H](C(=O)[C@@H](C)[C@@H](O)[C@H](C)[C@@H]1O[C@@H]([C@@H](CC)C(=O)O)CC[C@@H]1C)[C@H]1O[C@]2(C=C[C@@H](O)[C@]3(CC[C@@](C)([C@H]4CC[C@](O)(CC)[C@H](C)O4)O3)O2)[C@H](C)C[C@@H]1C` [SALINOMYCIN] registered an Activity of 76.1%.
Same read-out and setting: next, `C=CCOC(=O)[C@H](CC)[C@H]1CC[C@H](C)[C@H]([C@@H](C)[C@H](O)[C@H](C)C(=O)[C@H](CC)[C@H]2O[C@]3(CC[C@@H](OC(=O)C=C)[C@]4(CC[C@@](C)([C@H]5CC[C@](O)(CC)[C@H](C)O5)O4)O3)[C@H](C)C[C@@H]2C)O1`: less than 10%.
As usually defined, the IC50 is the concentration that gives 50% inhibition. Lower therefore signals higher potency. In the test on HT-29 [2], `CC[C@H]1C(=O)[C@@H](C)[C@@H](O)[C@H](C)[C@@H]2O[C@H](CC[C@@H]2C)[C@@H](CC)C(=O)OC/C=C/C(=O)O[C@@H]2CC[C@]3(O[C@H]1[C@@H](C)C[C@H]3C)O[C@@]21CC[C@@](C)([C@H]2CC[C@](O)(CC)[C@H](C)O2)O1` registered an IC50 greater than 10 µM. In the test with HT-29 [1], this molecule gave an Activity of 13.6%.
For `CC[C@H]1C(=O)[C@@H](C)[C@@H](O)[C@H](C)[C@@H]2O[C@H](CC[C@@H]2C)[C@@H](CC)C(=O)OC/C=C/CCC(=O)O[C@@H]2CC[C@]3(O[C@H]1[C@@H](C)C[C@H]3C)O[C@@]21CC[C@@](C)([C@H]2CC[C@](O)(CC)[C@H](C)O2)O1`, in that order: 7.64 µM and 67%.
For `C=CCCC(=O)O[C@@H]1CC[C@]2(O[C@H]([C@@H](CC)C(=O)[C@@H](C)[C@@H](O)[C@H](C)[C@@H]3O[C@@H]([C@@H](CC)C(=O)OCC=C)CC[C@@H]3C)[C@@H](C)C[C@H]2C)O[C@@]12CC[C@@](C)([C@H]1CC[C@](O)(CC)[C@H](C)O1)O2`, in the test with HT-29 [1], the Activity is on record as less than 10%.
